{
  "source": "PubChem BioAssay AID1259409",
  "about": "(Chemical Carcinogenesis Research Information System (CCRIS), 2018)",
  "origin": "cited, not measured here",
  "tested_on": "rodent chemically induced tumor inhibition, incidence and multiplicity",
  "experiment": "CCRIS tumor inhibitor studies",
  "conditions": "Route [Inhibitor]: ORAL, Species: RAT, Strain/Sex: F344/MALE; for outcome: Dose [Carcinogen]: 0.1% IN DRINKING WATER FOR 1 WK (STUDY DURATION: 32 WK)",
  "data": [
    {"smiles": "COc1cc(/C=C/C(=O)O[C@H]2CC[C@]34C[C@]35CC[C@]3(C)[C@@H]([C@H](C)CCC=C(C)C)CC[C@@]3(C)[C@@H]5CC[C@H]4C2(C)C)ccc1O", "values": [
      {"measurement": "outcome", "setting": "Carcinogen: 2,2'-DIHYDROXY-DI-N-PROPYLNITROSAMINE [621-64-7], Dose [Inhibitor]: 0.04% IN DIET FOR 30 WK BEGINNING 1 WK POST LAST CARCINOGEN DOSE (STUDY DURATION: 32 WK), Target Tissue: Type of Lesion: LUNG: CARCINOMA, Promoter: NONE", "value": "0/20 (0%), 0/20 (0%), 0%, not significant"},
      {"measurement": "outcome", "setting": "Carcinogen: 2,2'-DIHYDROXY-DI-N-PROPYLNITROSAMINE [621-64-7], Dose [Inhibitor]: 0.2% IN DIET FOR 30 WK BEGINNING 1 WK POST LAST CARCINOGEN DOSE (STUDY DURATION: 32 WK), Target Tissue: Type of Lesion: LUNG: CARCINOMA, Promoter: NONE", "value": "0/20 (0%), 2/20 (10%), -100%, not significant"},
      {"measurement": "outcome", "setting": "Carcinogen: 2,2'-DIHYDROXY-DI-N-PROPYLNITROSAMINE [621-64-7], Dose [Inhibitor]: 1% IN DIET FOR 30 WK BEGINNING 1 WK POST LAST CARCINOGEN DOSE (STUDY DURATION: 32 WK), Target Tissue: Type of Lesion: LUNG: CARCINOMA, Promoter: NONE", "value": "0/20 (0%), 10/20 (50%), -100%, p<0.001"},
      {"measurement": "tumour outcome (control, treated, inhibition, significance)", "setting": "Carcinogen: 2,2'-DIHYDROXY-DI-N-PROPYLNITROSAMINE [621-64-7], N-ETHYL-N-HYDROXYETHYLNIATROSAMINE [13147-25-6], 3,2'-DIMETHYL-4-AMINO, Carcinogen: 2,2'-DIHYDROXY-DI-N-PROPYLNITROSAMINE [621-64-7], N-ETHYL-N-HYDROXYETHYLNIATROSAMINE [13147-25-6], 3,2'-DIMETHYL-4-AMINO, Dose [Inhibitor]: 1% IN DIET FOR 32 WK BEGINNING 1 WK POST LAST CARCINOGEN DOSE (STUDY DURATION: 32 WK), Target Tissue: Type of Lesion: LIVER: ADENOMA, Dose [Carcinogen]: 1000 MG/KG BW DHPN IP 2X/3 WK, 1500 MG/KG BW EHEN IP 2X/3 WK, 75 MG/KG BW DMAB SC 3X/3 WK;, Dose [Carcinogen]: 1000 MG/KG BW DHPN IP 2X/3 WK, 1500 MG/KG BW EHEN IP 2X/3 WK, 75 MG/KG BW DMAB SC 3X/3 WK;, Promoter: NONE", "value": "9/14 (64%), 5/13 (38%), 41%, p<0.05"},
      {"measurement": "tumour outcome (control, treated, inhibition, significance)", "setting": "Carcinogen: 2,2'-DIHYDROXY-DI-N-PROPYLNITROSAMINE [621-64-7], N-ETHYL-N-HYDROXYETHYLNIATROSAMINE [13147-25-6], 3,2'-DIMETHYL-4-AMINO, Carcinogen: 2,2'-DIHYDROXY-DI-N-PROPYLNITROSAMINE [621-64-7], N-ETHYL-N-HYDROXYETHYLNIATROSAMINE [13147-25-6], 3,2'-DIMETHYL-4-AMINO, Dose [Inhibitor]: 1% IN DIET FOR 32 WK BEGINNING 1 WK POST LAST CARCINOGEN DOSE (STUDY DURATION: 32 WK), Target Tissue: Type of Lesion: LIVER: CARCINOMA, Dose [Carcinogen]: 1000 MG/KG BW DHPN IP 2X/3 WK, 1500 MG/KG BW EHEN IP 2X/3 WK, 75 MG/KG BW DMAB SC 3X/3 WK;, Dose [Carcinogen]: 1000 MG/KG BW DHPN IP 2X/3 WK, 1500 MG/KG BW EHEN IP 2X/3 WK, 75 MG/KG BW DMAB SC 3X/3 WK;, Promoter: NONE", "value": "6/14 (43%), 3/13 (23%), 47%, not significant"},
      {"measurement": "tumour outcome (control, treated, inhibition, significance)", "setting": "Carcinogen: 2,2'-DIHYDROXY-DI-N-PROPYLNITROSAMINE [621-64-7], N-ETHYL-N-HYDROXYETHYLNIATROSAMINE [13147-25-6], 3,2'-DIMETHYL-4-AMINO, Carcinogen: 2,2'-DIHYDROXY-DI-N-PROPYLNITROSAMINE [621-64-7], N-ETHYL-N-HYDROXYETHYLNIATROSAMINE [13147-25-6], 3,2'-DIMETHYL-4-AMINO, Dose [Inhibitor]: 1% IN DIET FOR 32 WK BEGINNING 1 WK POST LAST CARCINOGEN DOSE (STUDY DURATION: 32 WK), Target Tissue: Type of Lesion: LUNG: ADENOMA, Dose [Carcinogen]: 1000 MG/KG BW DHPN IP 2X/3 WK, 1500 MG/KG BW EHEN IP 2X/3 WK, 75 MG/KG BW DMAB SC 3X/3 WK;, Dose [Carcinogen]: 1000 MG/KG BW DHPN IP 2X/3 WK, 1500 MG/KG BW EHEN IP 2X/3 WK, 75 MG/KG BW DMAB SC 3X/3 WK;, Promoter: NONE", "value": "7/14 (50%), 11/13 (85%), -70%, not significant"},
      {"measurement": "tumour outcome (control, treated, inhibition, significance)", "setting": "Carcinogen: 2,2'-DIHYDROXY-DI-N-PROPYLNITROSAMINE [621-64-7], N-ETHYL-N-HYDROXYETHYLNIATROSAMINE [13147-25-6], 3,2'-DIMETHYL-4-AMINO, Carcinogen: 2,2'-DIHYDROXY-DI-N-PROPYLNITROSAMINE [621-64-7], N-ETHYL-N-HYDROXYETHYLNIATROSAMINE [13147-25-6], 3,2'-DIMETHYL-4-AMINO, Dose [Inhibitor]: 1% IN DIET FOR 32 WK BEGINNING 1 WK POST LAST CARCINOGEN DOSE (STUDY DURATION: 32 WK), Target Tissue: Type of Lesion: LUNG: CARCINOMA, Dose [Carcinogen]: 1000 MG/KG BW DHPN IP 2X/3 WK, 1500 MG/KG BW EHEN IP 2X/3 WK, 75 MG/KG BW DMAB SC 3X/3 WK;, Dose [Carcinogen]: 1000 MG/KG BW DHPN IP 2X/3 WK, 1500 MG/KG BW EHEN IP 2X/3 WK, 75 MG/KG BW DMAB SC 3X/3 WK;, Promoter: NONE", "value": "1/14 (8%), 7/13 (54%), -575%, p<0.05"},
      {"measurement": "tumour outcome (control, treated, inhibition, significance)", "setting": "Carcinogen: 2,2'-DIHYDROXY-DI-N-PROPYLNITROSAMINE, 53609-64-6, N-ETHYL-N-HYDROXYETHYL- NITROSAMINE, 13147-25-6, 3,2'-DIMETHYL-4-, Carcinogen: 2,2'-DIHYDROXY-DI-N-PROPYLNITROSAMINE, 53609-64-6, N-ETHYL-N-HYDROXYETHYL- NITROSAMINE, 13147-25-6, 3,2'-DIMETHYL-4-, Dose [Inhibitor]: 0, 1% IN DIET BEGINNING 1 WK POST LAST CARCINOGEN DOSE AND CONTINUING FOR 32 WK (STUDY DURATION: 36 WK), Target Tissue: Type of Lesion: LARGE INTESTINE: ADENOMA, Dose [Carcinogen]: 1000 MG/KG IP DHPN 2X, 1500 MG/KG GAV EHEN 2X AND 75 MG/KG SC DMAB 3X GIVEN OVER THE INITIAL 3 WK PERIOD AT 3-4 D INTERV, Promoter: NONE USED", "value": "7/14 (50%), 5/13 (38%), 24%, not significant"},
      {"measurement": "tumour outcome (control, treated, inhibition, significance)", "setting": "Carcinogen: 2,2'-DIHYDROXY-DI-N-PROPYLNITROSAMINE, 53609-64-6, N-ETHYL-N-HYDROXYETHYL- NITROSAMINE, 13147-25-6, 3,2'-DIMETHYL-4-, Carcinogen: 2,2'-DIHYDROXY-DI-N-PROPYLNITROSAMINE, 53609-64-6, N-ETHYL-N-HYDROXYETHYL- NITROSAMINE, 13147-25-6, 3,2'-DIMETHYL-4-, Dose [Inhibitor]: 0, 1% IN DIET BEGINNING 1 WK POST LAST CARCINOGEN DOSE AND CONTINUING FOR 32 WK (STUDY DURATION: 36 WK), Target Tissue: Type of Lesion: LARGE INTESTINE: CARCINOMA, Dose [Carcinogen]: 1000 MG/KG/ IP DHPN 2X, 1500 MG/KG GAV EHEN 2X 75 MG/KG SC DMAB 3X GIVEN OVER THE INITIAL 3 WK PERIOD AT 3-4 D INTERVALS, Promoter: NONE USED", "value": "3/14 (21%), 6/13 (46%), -119%, not calculated"}
    ]}
  ]
}
